“Also recorded” adds a separate entry of the source. Read-outs that look alike come from different tables or passages of the source.
Key:
[1] = tested on: HT29 cells; experiment: Glutathione and reactive oxygen species in HT29 cells; assay type: cell-based, human; details: 48 h
Method: Glutathione levels were measured using a commercially available kit (Cayman Chemical 703002) according to the manufacturers protocol. Concurrently ROS was measured in cells using CM-H2DCFDA (Life Technologies C6827) coupled with flow cytometry in accordance with the manufacturers protocol. The assay was replicated replicated at least three times, technically and biologically. Significance was calculated using a t-test in Graphpad Prism. Error is reported as standard deviation (SD).

[2] = tested on: pERK in HCC1806 and HT29 cells; experiment: AlphaScreen SureFire pERK assay; assay type: cell-based, human; details: 48 h
Method: Detection of activated ERK in cell lysates was enabled by the AlphaScreen SureFire ERK assay (Perkin Elmer) according to the manufacturers protocol. Cells were plated in 96-well plates for 24 hours prior to the assay.

[3] = tested on: human CRC cell lines; experiment: Follow-up viability screening (MultiTox Glo, sulforhodamine B); assay type: cell-based; details: four human CRC cell lines; 48 hrs; MultiTox Glo
Method: (§1) Viability was evaluated using a commercially available chemiluminescent reagents (CellTiter-Glo, Promega Corp. G7572; MultiTox Glo, Promega Corp. G9270) in 96-well plate format according to the manufacturers protocol. […] Subsequently, CellTiter-Glo reagent was added and the plates were read using a plate reader (BioTek Synergy 4) with standard settings. Each set of conditions was replicated at least three times, technically and biologically. Error is reported as standard deviation (SD). The sulforhodamine B assay was run analogously to the above assays as previously described^19.

[4] = tested on: human CRC organoids A-007 and A-008; experiment: Human CRC organoid viability assay; assay type: cell-based; details: V-9302 25 μM or CB-839 35 μM, 96 h
Method: Human CRC-derived organoids were prepared as reported method with modification^41. Briefly, specimens from freshly resected tumors were minced and digested with 2 mg/ml type 2 collagenase (Worthington, N.J., USA). Samples were passed through 40 µm filters (Greiner Bio One, NC, USA) and epithelial cells trapped on the filters were embed in Matrigel (Corning, MA, USA) and cultured with advanced DMEM/F12 supplemented with N2 and B27 supplements (Thermo Fischer, MA, USA), 50 ng/ml rhEGF (R&D systems, MN, USA) and 1% antibiotic-antimycotic (Corning). For viability assay, organoids were dissociated by TrypLE express (Thermo Fischer) and suspended in Matrigel. […] After 4 days of culture, images of the organoids in Matrigel were captured and the number of viable cells were quantified with CellTiter Aqueous One Cell Proliferation Assay kit (Promega, WI, USA) and a Synergy 4 plate reader (BioTek, VT, USA). The assay was replicated at least three times, technically and biologically. Significance was calculated using a t-test in Graphpad Prism. Error is reported as standard deviation (SD).

[5] = tested on: HCC1806 and HT29 cells; experiment: Autophagic flux (CYTO-ID); assay type: cell-based, human; details: single agent
Method: Autophagic flux was measure using the CYTO-ID autophagy detection kit (Enzo Life Sciences ENZ-51031). HCC1806 and HT29 cells were seeded in 96 well plates the day before the experiment. […] Following treatment, cells were gently washed with assay buffer followed by addition of the dual color detection solution and incubation at 37° C. for 30 min. The plate was analyzed on a fluorescence microplane reader (BioTek Synergy 4).

[6] = tested on: HT29 and HCT-116 cells; experiment: Cell viability with or without chloroquine; assay type: cell-based, human; details: 48 h
Method: as §1

[7] = target: ASCT2 (Homo sapiens (Human), UniProt Q15758); experiment: Inhibition of ASCT2-mediated 3H-glutamine uptake in live HEK293 (human) cells; assay type: cell-based
ASCT2 (Homo sapiens (Human), UniProt Q15758), sequence (Q15758 whole entry): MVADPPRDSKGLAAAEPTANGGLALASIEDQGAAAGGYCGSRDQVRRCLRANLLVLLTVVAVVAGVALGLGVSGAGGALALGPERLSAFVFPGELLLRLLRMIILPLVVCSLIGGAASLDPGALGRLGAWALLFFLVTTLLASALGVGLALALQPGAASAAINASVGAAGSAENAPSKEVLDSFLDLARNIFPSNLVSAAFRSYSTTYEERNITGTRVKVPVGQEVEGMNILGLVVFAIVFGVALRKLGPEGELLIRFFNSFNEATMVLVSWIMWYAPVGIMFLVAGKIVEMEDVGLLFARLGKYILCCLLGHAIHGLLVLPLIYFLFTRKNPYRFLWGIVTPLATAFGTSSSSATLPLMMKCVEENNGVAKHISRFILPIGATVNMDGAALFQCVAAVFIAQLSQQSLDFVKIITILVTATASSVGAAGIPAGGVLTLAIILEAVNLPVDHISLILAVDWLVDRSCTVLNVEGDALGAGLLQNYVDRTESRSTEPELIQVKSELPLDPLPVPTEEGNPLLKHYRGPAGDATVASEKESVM
Method: Live-cell amino acid uptake assays using HEK293 cells were carried out in 96-well plates (CulturPlate-96, Perkin Elmer). 96-well plates were coated with poly-D-lysine prior to the assay. Cells were plated at a density of 35,000 cells per well 24 h prior to carrying out the assay. Each set of conditions was replicated at least three times, technically and biologically. […] For ASCT2-mediated ^3H-glutamine uptake assays, 5 mM of the system-L inhibitor 2-amino-2-norbornanecarboxylic acid (BCH) was added and the assay buffer was adjusted to pH 6.0. For selectivity studies, no BCH was added and the assay was conducted at pH 7.4. Following the incubation period, the ^3H-glutamine/inhibitor was removed and the cells were washed three times with assay buffer. The cells were then lysed by the addition of 50 μL of 1 M NaOH. For reading, 150 μL of scintillation fluid (Microscint 40, Perkin Elmer) was added and the plates were counted on a scintillation counter (Topcount, Perkin Elmer). Fifty percent inhibitory concentrations (IC50) were calculated using GraphPad Prism version 6 for Mac OS X, GraphPad Software, San Diego Calif. […] Error is reported as standard deviation (SD).

[8] = target: ASCT2 (Rattus norvegicus (Rat), UniProt D3ZJ25); experiment: Inhibition of ASCT2-mediated glutamine uptake in C6 (rat) cells; assay type: cell-based; details: for IC50: C6 (rat) cells, glutamine uptake, mean of at least 3 biological replicates; for preference for blocking glutamine transport in rat vs human cell line: C6 (rat) vs HEK293 (human)
ASCT2 (Rattus norvegicus (Rat), UniProt D3ZJ25), sequence (D3ZJ25 whole entry): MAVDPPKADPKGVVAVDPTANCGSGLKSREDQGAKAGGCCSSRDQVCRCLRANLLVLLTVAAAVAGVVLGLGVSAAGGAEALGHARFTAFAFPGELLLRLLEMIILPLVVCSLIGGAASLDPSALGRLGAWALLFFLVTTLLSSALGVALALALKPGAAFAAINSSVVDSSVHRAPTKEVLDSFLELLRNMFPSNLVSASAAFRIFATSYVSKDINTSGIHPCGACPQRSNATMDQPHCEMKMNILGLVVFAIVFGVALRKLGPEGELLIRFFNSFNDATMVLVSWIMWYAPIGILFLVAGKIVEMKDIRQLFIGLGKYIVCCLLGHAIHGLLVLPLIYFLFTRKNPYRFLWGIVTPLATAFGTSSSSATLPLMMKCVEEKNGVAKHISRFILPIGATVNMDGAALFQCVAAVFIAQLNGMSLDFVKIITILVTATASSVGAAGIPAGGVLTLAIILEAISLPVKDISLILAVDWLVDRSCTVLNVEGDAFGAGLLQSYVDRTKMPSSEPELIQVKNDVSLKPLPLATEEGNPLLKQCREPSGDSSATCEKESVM

[9] = tested on: ASCT2; details: cited from earlier work
[10] = tested on: HCC1806 cells; experiment: Cell viability in HCC1806 cells; assay type: cell-based; details: Homo sapiens, exposure 48 hrs
[11] = HEK293 (human) cells, glutamine uptake, mean of at least 3 biological replicates, read-out: IC50 (human)

## O=C(Cc1cccc(OC(F)(F)F)c1)Nc1ccc(CCCCc2nnc(NC(=O)Cc3ccccn3)s2)nn1 [CB-839, reference compound]
[1]
  GSSG levels and ROS: not observed
[2]
  pERK (independent biochemical assay): not observed
[3]
  EC50, cellular viability: did not exhibit appreciable activity
[4]
  organoid viability: not significantly affected
[5]
  autophagic flux: did not lead to elevated autophagic flux
[6]
  cell viability, single agent: did not decrease cell viability

## COc1cccc(Oc2ccccc2CN(CC[C@@H](N)C(=O)O)Cc2ccccc2Oc2ccccc2OC)c1 [Compound 5]
[7]; [11]
  IC50: 57.2 µM
[8]
  IC50: 1.3 µM
  preference for blocking glutamine transport in rat vs human cell line: exhibited this preference

## COc1ccc(Oc2ccccc2CN(CC[C@@H](N)C(=O)O)Cc2ccccc2Oc2ccc(OC)cc2)cc1 [Compound 6]
[7]; [11]
  IC50: 11.9 µM
[8]
  IC50: 8.7 µM
  preference for blocking glutamine transport in rat vs human cell line: roughly equal potencies in both cells lines

## N[C@H](CCN(Cc1ccccc1Oc1cccc(Cl)c1)Cc1ccccc1Oc1cccc(Cl)c1)C(=O)O [Compound 7]
[7]; [11]
  IC50: 26 µM

## N[C@H](CCN(Cc1ccccc1Oc1ccccc1F)Cc1ccccc1Oc1ccccc1F)C(=O)O [Compound 8]
[7]; [11]
  IC50: 33.8 µM
[8]
  IC50: 1.8 µM
  preference for blocking glutamine transport in rat vs human cell line: some preference for blocking glutamine transport in the rat cell line

## N[C@H](CCN(Cc1ccccc1Oc1cccc(F)c1)Cc1ccccc1Oc1cccc(F)c1)C(=O)O [Compound 9]
[8]
  IC50: 36.3 µM

## Cc1ccc(Oc2ccccc2CN(CC[C@@H](N)C(=O)O)Cc2ccccc2Oc2ccc(F)cc2)cc1 [Compound 10]
[7]; [11]
  IC50: 142 µM
[8]
  IC50: 10.5 µM
  preference for blocking glutamine transport in rat vs human cell line: some preference for blocking glutamine transport in the rat cell line

## N[C@H](CCN(Cc1ccccc1Oc1ccccn1)Cc1ccccc1Oc1ccccn1)C(=O)O [Compound 11]
[7]; [11]
  IC50: 59.6 µM
[8]
  IC50: 68.2 µM
  preference for blocking glutamine transport in rat vs human cell line: roughly equal potencies in both cells lines

## COc1cccc(COc2ccccc2CN(CC[C@@H](N)C(=O)O)Cc2ccccc2OCc2cccc(OC)c2)c1 [Compound 12]
[7]; [11]
  IC50: 7.2 µM
[8]
  IC50: 5.1 µM

## N[C@H](CCN(Cc1ccccc1OCc1ccccc1Cl)Cc1ccccc1OCc1ccccc1Cl)C(=O)O [Compound 13]
[7]; [11]
  IC50: 40.1 µM
[8]
  IC50: 18.4 µM

## N[C@H](CCN(Cc1ccccc1OCc1cccc(O)c1)Cc1ccccc1OCc1cccc(Cl)c1)C(=O)O [Compound 14]
[7]; [11]
  IC50: 50.8 µM
[8]
  IC50: 12.7 µM

## N[C@H](CCN(Cc1ccccc1OCc1ccc(Cl)cc1)Cc1ccccc1OCc1ccc(Cl)cc1)C(=O)O [Compound 15]
[7]; [11]
  IC50: 33.7 µM
[8]
  IC50: 20.1 µM

## Cc1ccccc1COc1ccccc1CN(CC[C@@H](N)C(=O)O)Cc1ccccc1OCc1ccccc1C [Compound 16]
[7]; [11]
  IC50: 25.6 µM
[8]
  IC50: 41.7 µM

## Cc1cccc(COc2ccccc2CN(CC[C@@H](N)C(=O)O)Cc2ccccc2OCc2cccc(C)c2)c1 [Compound 17]
[8]
  IC50: 9 µM

## Cc1ccc(COc2ccccc2CN(CC[C@@H](N)C(=O)O)Cc2ccccc2OCc2ccc(C)cc2)cc1 [Compound 18]
[7]; [11]
  IC50: 17.5 µM
[8]
  IC50: 86.4 µM
  preference for blocking glutamine transport in rat vs human cell line: significant preference for inhibiting glutamine uptake in the human form of ASCT2

## N[C@H](CCN(Cc1ccccc1OCc1ccccc1F)Cc1ccccc1OCc1ccccc1F)C(=O)O [Compound 19]
[8]
  IC50: 3.3 µM

## N[C@H](CCN(Cc1ccccc1OCc1ccc(F)cc1)Cc1ccccc1OCc1ccc(F)cc1)C(=O)O [Compound 20]
[8]
  IC50: 11.2 µM

## N[C@H](CCN(Cc1ccccc1OCc1ccccn1)Cc1ccccc1OCc1ccccn1)C(=O)O [Compound 21]
[7]; [11]
  IC50: 48.3 µM
[8]
  IC50: 8.4 µM

## N[C@H](CCN(Cc1ccccc1OCc1cccnc1)Cc1ccccc1OCc1cccnc1)C(=O)O [Compound 22]
[7]; [11]
  IC50: 89.1 µM
[8]
  IC50: 17.3 µM

## N[C@@H](CCC(=O)Nc1ccc([N+](=O)[O-])cc1)C(=O)O [GPNA, L-γ-glutamyl-p-nitroanilide]
[7]; live HEK-293 cells, read-out: IC50, inhibition of ASCT2-mediated glutamine uptake in human cells
  IC50: 1000 µM
[9]
  potency as ASCT2 inhibitor (previously reported): poor potency and selectivity in human cells; also recorded: modest potency in the low millimolar range

## NC(=O)CC[C@H](Nc1ccccc1CN1CCOCC1)C(=O)O [N-(2-(morpholinomethyl)phenyl)-L-glutamine]
[9]
  activity against ASCT2 compared to GPNA (previously described): three-fold improved activity

## N[C@@H](COC(=O)c1ccc(-c2ccccc2)cc1)C(=O)O [O-(4-phenylbenzoyl)-L-serine]
[9]; Albers et al., read-out: apparent affinity
  Ki: 30 µM

## Cc1cccc(COc2ccccc2CN(Cc2ccccc2OCc2cccc(C)c2)C2CCN[C@H](C(=O)O)C2)c1 (stereo partly drawn) [WJB-A-110, (2S)-4-(Bis(2-((3-methylbenzyl)oxy)benzyl)amino)piperidine-2-carboxylic Acid]
[10]
  IC50: 32 µM

## Cc1cccc(COc2ccccc2CN(Cc2ccccc2OCc2cccc(C)c2)C2CN[C@H](C(=O)O)C2)c1 (stereo partly drawn) [WJB-A-119, (2S)-4-(Bis(2-((3-methylbenzyl)oxy)benzyl)amino)pyrrolidine-2-carboxylic Acid]
[10]
  IC50: 23 µM

Source: patent US10793514B2, “Glutamine transport inhibitors and methods for treating cancer” (Vanderbilt University, priority 2016, dated 2020)
